System: MDA-MB-157 spheroids
Test: Viability of ATPS-generated cancer cell spheroids treated with cisplatin (PRESTO BLUE enzymatic assay)
Assay type: cell-based
Details: cisplatin 25 to 200 μM, four days incubation
Description: Component 1 contains 5%(w/w) polyethylene glycol (PEG, Mw: 35,000) and component 2 contains 12.8%(w/w) Dextran (DEX, Mw: 500,000). […] First, the PEG phase is loaded into wells of a well plate (destination plate) and this plate is placed on the work surface of a robotic liquid handler (FIG. 2). Then cells are harvested from a culture dish, mixed with the DEX phase at a 1:1 volumetric ratio to reduce DEX concentration to 6.4% (w/w), and loaded into a second plate (source plate). This plate is also placed on the work surface of the liquid handler. Pipette tips are mounted onto the dispense head of the liquid handler (FIG. 3) and are immersed into the source plate to load a defined volume (˜0.3 microliters) of the cell suspension in DEX phase. After retraction from the source plate, pipette tips are lowered into the destination plate and dispense their content. Dispensed solution forms a single droplet containing cells in each well and the droplet remains immiscible from its surrounding PEG phase (FIG. 4a). Cells aggregate and form an individual spheroid in each well (FIG. 4b and FIG. 5). […] The drug, diluted with culture media, was renewed once by the addition of 50 μL after two days of incubation.

## N.N.[Cl][Pt][Cl] [cisplatin]
  percent viability trend against drug concentration: gradual decrease as the cisplatin concentration increases

Reference: patent US20160091487A1, “ENGINEERING INDIVIDUALLY ADDRESSABLE CELLULAR SPHEROIDS USING AQUEOUS TWO-PHASE SYSTEMS” (priority 2012, published 2016)
